The term inhibition denotes the relative decrease from the control value, in per cent.

This is an account of results in ChEMBL document CHEMBL1142512, “Synthesis, in vitro, and in silico evaluation of organometallic technetium and rhenium thymidine complexes with retained substrate activity toward human thymidine kinase type 1” (J Med Chem, 2008).

The subject of data set [1] is SK-N-MC. In words: Drug uptake in human SK-N-MC cells at 111 kBq after 2 hrs by […]. It is filed as ADME, cell-based.
The target in data set [2] is T1, Thymidine kinase, cytosolic (Homo sapiens) (UniProt P04183).
T1 sequence (whole entry): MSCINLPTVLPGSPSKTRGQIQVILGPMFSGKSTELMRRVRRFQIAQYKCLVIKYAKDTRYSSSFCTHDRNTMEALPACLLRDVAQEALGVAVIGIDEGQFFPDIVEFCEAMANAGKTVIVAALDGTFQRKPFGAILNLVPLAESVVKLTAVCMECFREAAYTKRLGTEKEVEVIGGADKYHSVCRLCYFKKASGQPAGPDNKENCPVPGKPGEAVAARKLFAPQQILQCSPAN
In words: Inhibition of human recombinant TK1 phosphorylation after 15 mins by pyruvate kinase/lactate dehydrogenase coupled assay relative to thymidine.

On to `[3H]C([3H])([3H])c1cn([C@H]2C[C@H](O)[C@@H](CO)O2)c(=O)[nH]c1=O`, for which the Drug uptake in data set [1] is given as 29 %ID/mg/ml.

As to `C#CCn1c(=O)c(C)cn([C@H]2C[C@H](O)[C@@H](CO)O2)c1=O`, in data set [2], the inhibition is 86.7%.
